Assay results from paper PMC6150198, “Functional Characterization of a Hydroxyacid/Alcohol Hydroxycinnamoyl Transferase Produced by the Liverwort Marchantia emarginata” (Molecules : A Journal of Synthetic Chemistry and Natural …, 2017).

Tested on: T1, MeHFT
T1 construct: ~71 kDa on gel), E. coli BL21(DE3), Ni-NTA; primers encode N-terminus MGAEEV and C-terminus EEAIKL; cDNA 1413 nt from transcriptome SRP078649
Assay: HPLC of alkyl ferulate product, UV […] nm, Michaelis-Menten fit
Format: biochemical, Marchantia emarginata
Conditions: 0.1 M Tris-HCl pH 7.5, 40 °C, 10 min

Row | Compound | Km (acyl acceptor varied, 0.1 mM feruloyl-CoA) | Km (acyl donor varied, 0.1 mM 1-decanol)
1 | CCCCCCCCCCO [1-Decanol] | 65.5 ± 11.2 µM | –
2 | COc1cc(/C=C/C(=O)SCCNC(=O)CCNC(=O)[C@H](O)C(C)(C)COP(=O)(O)OP(=O)(O)OC[C@H]2O[C@@H](n3cnc4c(N)ncnc43)[C@H](O)[C@@H]2OP(=O)(O)O)ccc1O [Feruloyl-CoA] | – | 79.4 ± 10.9 µM
